Measurements as given in patent US6649201B2, “Eggshell derived monocalcium and dicalcium phosphate” (Board of Regents of University of Nebraska, priority 2001, dated 2003).

Experiment: 21-day starter chick feeding study: relative bioavailability of phosphate sources (slope ratio assay)
Conditions: in vivo
Text: (CDP) source in starter chick diets. […] Each dietary treatment was replicated six times with eleven chicks per pen during a 21-day experimental period. […] A slope ratio assay using linear regression analysis was used to determine relative bioavailabilities.

Q: With “eggshell derived monocalcium phosphate [EDMCP]” as the substance, how does the “availability of the phosphate fraction to the animal vs currently available commercial products” value read?
A: more available
